Experimental data taken from patent US20100210467A1, “AGENT FOR IMPROVING SUGARCANE BRIX AND METHOD OF PROMOTING SUGARCANE RIPENING USING THE SAME” (Kumiai Chemical Industry Co., Ltd., priority 2007, published 2010).

Assays:
Assay type in all cases: in vivo
[1] = system: sugarcane; experiment: Example 2: sugar content of sugarcane stem juice after spraying from an aircraft, field test in Brazil; details: 50 g/ha; after 30 days of spraying
Method: (§1) In accordance with “NORMAS DE AVALIAçÃO DA […] DA CANA-DE-AçÚCAR” used in Brazilian sugar refining plants as Standard for quality evaluation of sugarcane, the analysis on the sugar content in the squeezed juice of sugarcane stem was carried out for Brix value, sugar content in sugarcane (PC), and total sugar amount recoverable from sugarcane stem (ATR) as follows.
(§2) Brix was measured according to a digital refractometer. PC was calculated according to the equation (1). ATR was calculated according to the equation (5).
At the time the Brix value of sugarcane grown in a sugarcane cultivated area in Brazil (an average Brix value in the harvesttime being 21%) became 81% of the aforesaid average Brix value, a bispyribac-sodium formulation (a commercially available product, a tradename “NOMINEE 400SC”) was diluted with water so that the amount of the effective ingredient in 30 liters of the spraying liquid could be equal to the used amount shown in Table 3, and the liquid was sprayed over the test area from an air-craft at a rate of 30 liters per hectare.
In a control area, a known fluazifop formulation (a commercially available product, a tradename “[…]”) was similarly sprayed.
Next, 5 individual sugarcanes were cut from 5 locations in each area, i.e. 25 sugarcanes from each area, on the initial day of spraying and after 30 days of spraying, and thereafter the stems were squeezed and sugar was recovered from the juice to obtain the yield. The yield after 30 days of spraying was compared with the yield of the initial day of spraying and the rate of increase (%) was calculated. The analysis on the sugar content in the squeezed juice of sugarcane stems was carried out similarly as in the case of Example 1.

[2] = system: sugarcane; experiment: Example 4: sugar content of sugarcane stem juice after pyribenzoxim back pack spraying, field test in Brazil; details: 15 g/ha
Method: as §1, §2
At the time the Brix value of sugarcane grown in a sugarcane cultivated area in Brazil (an average Brix value in the harvesttime being 20%) became 86% of the aforesaid average Brix value, a pyribenzoxim formulation (a tradename “PYANCHOR”) was diluted with water so that the amount of the effective ingredient in 105 liters of the spraying liquid could be equal to the used amount shown in Table 6, and the liquid was sprayed above the plant by the aid of a CO2-pressurized back pack sprayer to the test area at a rate of 105 liters per hectare.
(§3) In a control area, a known sulfometuron-methyl formulation (a commercially available product, a tradename “CURAVIAL”) was similarly sprayed.
(§4) Next, 20 individual sugarcanes were cut from each area on the initial day of spraying, after 15 days of spraying, after 30 days of spraying and after 45 days of spraying, and thereafter the stems were squeezed and sugar was recovered from the juice to obtain the yield. Each yield was compared with the yield of the initial day of spraying and the rate of increase (%) was calculated. The analysis on the sugar content in the squeezed juice of sugarcane stems was carried out similarly as in the case of Example 1.

[3] = system: sugarcane; experiment: Example 5: sugar content of sugarcane stem juice after bispyribac-sodium and/or gibberellin spraying, field test in Brazil; details: 15 g/ha
Method: as §1, §2
At the time the Brix value of sugarcane grown in a sugarcane cultivated area in Brazil (an average Brix value in the harvesttime being 18%) became 88% of the aforesaid average Brix value, a bispyribac-sodium formulation (a commercially available product, a tradename, “NOMINEE 400SC”) and a gibberellin formulation (a commercially available product, a tradename, “PRO-GIBB”) were admixed together and diluted with water or separately diluted with water so that the amount of the effective ingredient in 105 liters of each of the spraying liquids could be equal to the used amount shown in Table 8, and each liquid was sprayed above the plant by the aid of a CO2-pressurized back pack sprayer to the test area at a rate of 105 liters per hectare.
as §3, §4

[4] = system: sugarcane; experiment: Example 1: sugar content of sugarcane stem juice after power-sprayer application, field test in Brazil; details: 15 g/ha
Method: With respect to sugarcane grown in a sugarcane cultivated area in Brazil (an average Brix value in the harvesttime being 18%), a juice was collected from 5 middle internodes selected at random in the sugarcane stem and the Brix value was measured according to a usual method. At the time the measured Brix value became 82% of the aforementioned average Brix value, a bispyribac-sodium formulation (a commercially available product, a tradename “NOMINEE 400SC”) was diluted with water so that the amount of the effective ingredient in 74 liters of the spraying liquid could be equal to the used amount shown in Table 1. The liquid was then sprayed above the plant by the aid of a power sprayer to a test area at a rate of 74 liters per hectare.
as §3
Next, 10 individual sugarcanes were cut from each area on the initial day of spraying, after 30 days of spraying and after 45 days of spraying, and thereafter the stem was squeezed and sugar was recovered from the juice to obtain the yield. Each yield was compared with the yield of the initial day of spraying and the rate of increase (%) was calculated.
as §1, §2
S denotes a sugar content in the extracted liquid and is calculated according to the equation (2). F denotes an amount of fibers in sugarcane and is calculated according to the equation (3). C denotes a conversion coefficient from the sugar content in the extracted liquid to an absolute amount and is calculated according to the equation (4).
LAI denotes a measured value by the digital saccharimeter after clarification of the juice by a clarifying mixture made from aluminum.
PBU denotes the mass of a wet bagasse exhausted from a pressing machine in the squeezed step of sugarcane stem.
ARC denotes an amount of reducing sugar of sugarcane and is calculated from the following equation (6).
AR denotes an amount of reducing sugar in the extracted liquid and is calculated from the following equation (7).

[5] = system: sugarcane; experiment: Example 3: sugar content of sugarcane stem juice after pyrimisulfan back pack spraying, field test in Brazil; details: 15 g/ha
Method: as §1, §2
At the time the Brix value of sugarcane grown in a sugarcane cultivated area in Brazil (an average Brix value in the harvesttime being 18%) became 88% of the aforesaid average Brix value, pyrimisulfan (pyrimisulfan prepared by a method disclosed in JP2000-44546A) was diluted with water so that the amount of the effective ingredient in 105 liters of the spraying liquid could be equal to the used amount shown in Table 4, and the liquid was sprayed above the plant by the aid of a CO2-pressurized back pack sprayer to the test area at a rate of 105 liters per hectare.
as §3, §4

## CC(Oc1ccc(Oc2ccc(C(F)(F)F)cn2)cc1)C(=O)O (stereo not drawn) [Fluazifop, fluazifop]
[1]
  ATR increased rate from the initial day of spraying: 20.2%
  Brix increased rate from the initial day of spraying: 18.1%
  Concentration of soluble solid matter, Brix: 20.5%
  PC increased rate from the initial day of spraying: 22.0%
  Sugar content in sugarcane, PC: 15.1%
  Total sugar amount recoverable from 1 kg of stem, ATR: 146.0 g

## COC(=O)c1ccccc1S(=O)(=O)NC(=O)Nc1nc(C)cc(C)n1 [Sulfometuron-methyl, sulfometuron-methyl]
[2]; after 15 days of spraying
  ATR increased rate from the initial day of spraying: −3.2%
  Brix increased rate from the initial day of spraying: −5.4%
  Concentration of soluble solid matter, Brix: 16.5%
  Total sugar amount recoverable from 1 kg of stem, ATR: 120.1 g
[2]; after 30 days of spraying
  ATR increased rate from the initial day of spraying: 9.9%
  Brix increased rate from the initial day of spraying: 9.2%
  Concentration of soluble solid matter, Brix: 19.1%
  Total sugar amount recoverable from 1 kg of stem, ATR: 136.3 g
[2]; after 45 days of spraying
  ATR increased rate from the initial day of spraying: 19.0%
  Brix increased rate from the initial day of spraying: 17.2%
  Concentration of soluble solid matter, Brix: 20.5%
  Total sugar amount recoverable from 1 kg of stem, ATR: 147.6 g
[3]; after 15 days of spraying
  ATR increased rate from the initial day of spraying: 1.7%
  Brix increased rate from the initial day of spraying: 1.2%
  Concentration of soluble solid matter, Brix: 16.7%
  Total sugar amount recoverable from 1 kg of stem, ATR: 117.0 g
[3]; after 30 days of spraying
  ATR increased rate from the initial day of spraying: 8.1%
  Brix increased rate from the initial day of spraying: 6.4%
  Concentration of soluble solid matter, Brix: 17.6%
  Total sugar amount recoverable from 1 kg of stem, ATR: 124.5 g
[3]; after 45 days of spraying
  ATR increased rate from the initial day of spraying: −0.6%
  Brix increased rate from the initial day of spraying: −1.8%
  Concentration of soluble solid matter, Brix: 16.2%
  Total sugar amount recoverable from 1 kg of stem, ATR: 114.4 g
[4]; after 30 days of spraying
  ATR increased rate from the initial day of spraying: 21.9%
  Brix increased rate from the initial day of spraying: 21.4%
  Concentration of soluble solid matter, Brix: 19.2%
  PC increased rate from the initial day of spraying: 24.3%
  Sugar content in sugarcane, PC: 13.9%
  Total sugar amount recoverable from 1 kg of stem, ATR: 138.1 g
[4]; after 45 days of spraying
  ATR increased rate from the initial day of spraying: 31.2%
  Brix increased rate from the initial day of spraying: 29.6%
  Concentration of soluble solid matter, Brix: 20.5%
  PC increased rate from the initial day of spraying: 35.1%
  Sugar content in sugarcane, PC: 15.1%
  Total sugar amount recoverable from 1 kg of stem, ATR: 148.7 g
[5]; after 15 days of spraying
  ATR increased rate from the initial day of spraying: 1.7%
  Brix increased rate from the initial day of spraying: 1.2%
  Concentration of soluble solid matter, Brix: 16.7%
  Total sugar amount recoverable from 1 kg of stem, ATR: 117.0 g
[5]; after 30 days of spraying
  ATR increased rate from the initial day of spraying: 8.1%
  Brix increased rate from the initial day of spraying: 6.4%
  Concentration of soluble solid matter, Brix: 17.6%
  Total sugar amount recoverable from 1 kg of stem, ATR: 124.5 g
[5]; after 45 days of spraying
  ATR increased rate from the initial day of spraying: −0.6%
  Brix increased rate from the initial day of spraying: −1.8%
  Concentration of soluble solid matter, Brix: 16.2%
  Total sugar amount recoverable from 1 kg of stem, ATR: 114.4 g
